The subject of this assay is BDF1 mice, colon carcinoma 38 sc, T/C %. Put plainly: NCI In Vivo Anticancer Drug Screen. Data for tumor model Colon Carcinoma 38 (subcutaneous) in B6D2F1 (BDF1) mice. Particulars: endpoint: median tumor weight (est.), higher = larger tumour. Summed up:
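Compound antitumor activity was assessed in mice carrying transplantable tumors. Survival or tumor size was recorded, and each value is the treated-group measurement divided by that of the vehicle-treated control group.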

Setting [1] is: dose: 12.5 mg/kg/injection, schedule: Q07DX002 (ip), vehicle: saline with Tween-80.
[2] abbreviates: dose: 25.0 mg/kg/injection, schedule: Q07DX002 (ip), vehicle: saline with Tween-80.
The mark [3] stands for this setting: dose: 50.0 mg/kg/injection, schedule: Q07DX002 (ip), vehicle: saline with Tween-80.
The mark [4] stands for this setting: dose: 100.0 mg/kg/injection, schedule: Q07DX002 (ip), vehicle: saline with Tween-80.
Where [5] appears, read: dose: 200.0 mg/kg/injection, schedule: Q07DX002 (ip), vehicle: saline with Tween-80.
Where [6] appears, read: dose: 25.0 mg/kg/injection, schedule: Q07DX002 (ip), vehicle: saline.
The mark [7] stands for this setting: dose: 50.0 mg/kg/injection, schedule: Q07DX002 (ip), vehicle: saline.
The mark [8] stands for this setting: dose: 100.0 mg/kg/injection, schedule: Q07DX002 (ip), vehicle: saline.
Setting [9] is: dose: 12.5 mg/kg/injection, schedule: Q07DX002 (ip), vehicle: Klucel (hydroxypropylcellulose) (HPC).
The mark [10] stands for this setting: dose: 25.0 mg/kg/injection, schedule: Q07DX002 (ip), vehicle: Klucel (hydroxypropylcellulose) (HPC).
[11] abbreviates: dose: 50.0 mg/kg/injection, schedule: Q07DX002 (ip), vehicle: Klucel (hydroxypropylcellulose) (HPC).
The mark [12] stands for this setting: dose: 400.0 mg/kg/injection, schedule: Q07DX002 (ip), vehicle: Klucel (hydroxypropylcellulose) (HPC).

“And” between values parts separate entries of the source, which are not always exact repeats. Equal entries are not always repeated. Inconclusive results are not listed.

This passage reports T/C results from PubChem BioAssay AID212 (DTP/NCI, 2004).

As for `O=C1N=C(Oc2ccccc2)SC1=O`, the T/C under setting [1] is 95 % of control; the T/C under setting [2] is 62 % of control and 80 % of control; the T/C under setting [3] is 53 % of control; the T/C under setting [4] was 88 % of control; the T/C under setting [5] was 118 % of control.
As to `O=C(NO)c1ccccc1`, the T/C is 70 % of control under setting [6]; 168 % of control (dose: 25.0 mg/kg/injection, schedule: Q07DX002 (ip), vehicle: suspension in saline); 83 % of control under setting [7]; 63 % of control under setting [8]; 80 % of control (dose: 200.0 mg/kg/injection, schedule: Q07DX002 (ip), vehicle: saline); 165 % of control (dose: 200.0 mg/kg/injection, schedule: Q07DX002 (ip), vehicle: suspension in saline). Also, the T/C (dose: 400.0 mg/kg/injection, schedule: Q07DX002 (ip), vehicle: saline) was 70 % of control; the T/C (dose: 400.0 mg/kg/injection, schedule: Q07DX002 (ip), vehicle: suspension in saline) was 103 % of control; the T/C (dose: 800.0 mg/kg/injection, schedule: Q07DX002 (ip), vehicle: saline) was 89 % of control; the T/C (dose: 800.0 mg/kg/injection, schedule: Q07DX002 (ip), vehicle: suspension in saline) was 105 % of control.
As for `O=C1NC(=O)NC(C(=O)O)N1`, the T/C runs as follows: (dose: 56.25 mg/kg/injection, schedule: Q01DX001 (ip), vehicle: DMSO) 90 % of control; (dose: 56.25 mg/kg/injection, schedule: Q07DX002 (ip), vehicle: DMSO) 122 % of control; (dose: 112.5 mg/kg/injection, schedule: Q01DX001 (ip), vehicle: DMSO) 101 % of control; (dose: 112.5 mg/kg/injection, schedule: Q07DX002 (ip), vehicle: DMSO) 121 % of control; (dose: 225.0 mg/kg/injection, schedule: Q01DX001 (ip), vehicle: DMSO) 97 % of control; (dose: 225.0 mg/kg/injection, schedule: Q07DX002 (ip), vehicle: DMSO) 75 % of control. Also, the T/C runs as follows: (dose: 450.0 mg/kg/injection, schedule: Q01DX001 (ip), vehicle: DMSO) 97 % of control; (dose: 450.0 mg/kg/injection, schedule: Q07DX002 (ip), vehicle: DMSO) 101 % of control; (dose: 900.0 mg/kg/injection, schedule: Q01DX001 (ip), vehicle: DMSO) 71 % of control; (dose: 900.0 mg/kg/injection, schedule: Q07DX002 (ip), vehicle: DMSO) 108 % of control; (dose: 1800.0 mg/kg/injection, schedule: Q07DX002 (ip), vehicle: DMSO) 112 % of control.
Turning to `O=C(O)CC(NC(=O)CP(=O)(O)O)C(=O)O.[NH-]C1CCCCC1[NH-].[Pt+2]` (stereo not given), the T/C was 103 % of control (dose: 1.56 mg/kg/injection, schedule: Q07DX002 (ip), vehicle: dextrose); 77 % of control and 87 % of control (dose: 3.12 mg/kg/injection, schedule: Q07DX002 (ip), vehicle: dextrose); 85 % of control and 90 % of control (dose: 6.25 mg/kg/injection, schedule: Q07DX002 (ip), vehicle: dextrose); 64 % of control and 65 % of control (dose: 12.5 mg/kg/injection, schedule: Q07DX002 (ip), vehicle: dextrose); 44 % of control and 54 % of control (dose: 25.0 mg/kg/injection, schedule: Q07DX002 (ip), vehicle: dextrose); 14 % of control (dose: 50.0 mg/kg/injection, schedule: Q07DX002 (ip), vehicle: dextrose).
As for `CCOC(=O)C(N)CSC(=O)NC` (stereo not given), the T/C reads like this: (dose: 125.0 mg/kg/injection, schedule: Q07DX002 (ip), vehicle: saline) 83 % of control; (dose: 250.0 mg/kg/injection, schedule: Q07DX002 (ip), vehicle: saline) 110 % of control; (dose: 500.0 mg/kg/injection, schedule: Q07DX002 (ip), vehicle: saline) 81 % of control.
As for `O=c1[nH]cnc2n[nH]nc12`, the T/C under setting [9] is 122 % of control; the T/C under setting [10] was 110 % of control; the T/C under setting [11] was 100 % of control; the T/C (dose: 100.0 mg/kg/injection, schedule: Q07DX002 (ip), vehicle: Klucel (hydroxypropylcellulose) (HPC)) is 87 % of control; the T/C (dose: 200.0 mg/kg/injection, schedule: Q07DX002 (ip), vehicle: Klucel (hydroxypropylcellulose) (HPC)) is 77 % of control; the T/C under setting [12] was 88 % of control.
Regarding `O=c1oc2c(O)c(O)cc3c(=O)oc4c(O)c(O)cc1c4c23`, the T/C was 195 % of control under setting [9], 200 % of control under setting [10], 181 % of control under setting [11] and 155 % of control under setting [12].
`CC1CN1P1(N2CC2C)=NP(N2CC2C)(N2CC2C)=NP(N2CC2C)(N2CC2C)=N1` (stereo not given): the T/C (dose: 6.25 mg/kg/injection, schedule: Q07DX002 (ip), vehicle: saline) is 103 % of control; the T/C (dose: 12.5 mg/kg/injection, schedule: Q07DX002 (ip), vehicle: saline) was 104 % of control; the T/C under setting [6] was 111 % of control; the T/C under setting [7] is 155 % of control; the T/C under setting [8] is 70 % of control and 94 % of control.
As for `C[CH2][Ge]([CH2]C)[CH2]C.C[CH2][Ge]([CH2]C)[CH2]C.C[CH2][Ge]([CH2]C)[O][Ge]([CH2]C)[CH2]C`, the T/C is 80 % of control under setting [1]; 90 % of control under setting [2]; 87 % of control under setting [3]; 68 % of control under setting [4]; 81 % of control and 95 % of control under setting [5]; 90 % of control (dose: 800.0 mg/kg/injection, schedule: Q07DX002 (ip), vehicle: saline with Tween-80).
`CC[N+](CC)(CC)CC`: the T/C by setting is: (dose: 1.56 mg/kg/injection, schedule: Q07DX002 (ip), vehicle: saline with Tween-80) 96 % of control; (dose: 3.12 mg/kg/injection, schedule: Q07DX002 (ip), vehicle: saline with Tween-80) 119 % of control; (dose: 6.25 mg/kg/injection, schedule: Q07DX002 (ip), vehicle: saline with Tween-80) 86 % of control; under setting [1], 59 % of control.
Turning to `CC(C)CC(NC(=O)C(O)C(N)Cc1ccccc1)C(=O)O` (stereo not given), the T/C (dose: 10.0 micrograms/mouse/injection, schedule: Q10HX006 (ip), vehicle: saline) is 85 % of control; the T/C (dose: 10.0 micrograms/mouse/injection, schedule: Q10HX010 (oral), vehicle: saline) was 74 % of control; the T/C (dose: 100.0 micrograms/mouse/injection, schedule: Q10HX006 (ip), vehicle: saline) was 50 % of control; the T/C (dose: 100.0 micrograms/mouse/injection, schedule: Q10HX010 (oral), vehicle: saline) was 62 % of control.
As for `CCc1nc(N)nc(N)c1-c1ccc(Cl)c(N=[N+]=[N-])c1`, the T/C reads like this: (dose: 25.0 mg/kg/injection, schedule: Q07DX002 (ip), vehicle: distilled water + Tween-80) 82 % of control; (dose: 50.0 mg/kg/injection, schedule: Q07DX002 (ip), vehicle: distilled water + Tween-80) 98 % of control; (dose: 100.0 mg/kg/injection, schedule: Q07DX002 (ip), vehicle: distilled water + Tween-80) 97 % of control; (dose: 200.0 mg/kg/injection, schedule: Q07DX002 (ip), vehicle: distilled water + Tween-80) 88 % of control; (dose: 400.0 mg/kg/injection, schedule: Q07DX002 (ip), vehicle: distilled water + Tween-80) 106 % of control.
Regarding `O=C(O)/C=C/C(=O)N1Cc2cc3ccccc3nc2C1`, the T/C reads like this: under setting [1], 84 % of control; under setting [3], 89 % of control; under setting [4], 173 % of control; under setting [5], 104 % of control.
In the case of `CCCCCC1c2cc(O)ccc2OC1N1CCOCC1` (stereo not given), the T/C runs as follows: (dose: 12.0 mg/kg/injection, schedule: Q07DX002 (ip), vehicle: saline with Tween-80) 107 % of control; under setting [2], 161 % of control; under setting [4], 169 % of control; under setting [5], 55 % of control; (dose: 400.0 mg/kg/injection, schedule: Q07DX002 (ip), vehicle: saline with Tween-80) 170 % of control; (dose: 450.0 mg/kg/injection, schedule: Q07DX002 (ip), vehicle: saline with Tween-80) 120 % of control. The T/C (dose: 900.0 mg/kg/injection, schedule: Q07DX002 (ip), vehicle: saline with Tween-80) is 154 % of control.
